Test results: patent US11213030B2, “4-(3,4-dihydronaphth-1-yl or 2H-chromen-4-yl)-5-hydroxy-2H-pyradizin-3-ones as herbicides” (FMC Corporation, priority 2017, dated 2022)

Key:
Type in all cases: in vivo
[1] = system: barnyardgrass (Echinochloa crus-galli); assay: Test A preemergence, barnyardgrass; details: 0 to 100 scale
Description: (§1) Seeds of plant species selected from barnyardgrass (Echinochloa crus-galli), kochia (Kochia scoparia), ragweed (common ragweed, Ambrosia elatior), ryegrass, It. (Italian ryegrass, Lolium multiflorum), foxtail, green (green foxtail, Setaria viridis), and pigweed (Amaranthus retroflexus) were planted into a blend of loam soil and sand and treated preemergence with a directed soil spray using test chemicals formulated in a non-phytotoxic solvent mixture which included a surfactant. At the same time, plants selected from these weed species and also wheat (Triticum aestivum), corn (Zea mays), blackgrass (Alopecurus myosuroides), and galium (catchweed bedstraw, Galium aparine) were planted in pots containing the same blend of loam soil and sand and treated with postemergence applications of test chemicals formulated in the same manner. Plants ranged in height from 2 to 10 cm and were in the one- to two-leaf stage for the postemergence treatment. Treated plants and untreated controls were maintained in a greenhouse for approximately 10 d, after which time all treated plants were compared to untreated controls and visually evaluated for injury. Plant response ratings, summarized in Table A, are based on a 0 to 100 scale where 0 is no effect and 100 is complete control. A dash (-) response means no test result.

kochia (Kochia scoparia) [2] = assay: Test A preemergence, kochia; details: 0 to 100 scale
Description: as §1

[3] = system: ragweed (common ragweed, Ambrosia elatior); assay: Test A preemergence, ragweed; details: 0 to 100 scale
Description: as §1

[4] = system: ryegrass, It. (Italian ryegrass, Lolium multiflorum); assay: Test A preemergence, Italian ryegrass; details: 0 to 100 scale
Description: as §1

[5] = system: foxtail, green (green foxtail, Setaria viridis); assay: Test A preemergence, green foxtail; details: 0 to 100 scale
Description: as §1

[6] = system: pigweed (Amaranthus retroflexus); assay: Test A preemergence, pigweed; details: 0 to 100 scale
Description: as §1

[7] = system: barnyardgrass (Echinochloa crus-galli); assay: Test A postemergence, barnyardgrass; details: 0 to 100 scale
Description: as §1

kochia (Kochia scoparia) [8] = assay: Test A postemergence, kochia; details: 0 to 100 scale
Description: as §1

[9] = system: ragweed (common ragweed, Ambrosia elatior); assay: Test A postemergence, ragweed; details: 0 to 100 scale
Description: as §1

[10] = system: ryegrass, It. (Italian ryegrass, Lolium multiflorum); assay: Test A postemergence, Italian ryegrass; details: 0 to 100 scale
Description: as §1

[11] = system: foxtail, green (green foxtail, Setaria viridis); assay: Test A postemergence, green foxtail; details: 0 to 100 scale
Description: as §1

[12] = system: pigweed (Amaranthus retroflexus); assay: Test A postemergence, pigweed; details: 0 to 100 scale
Description: as §1

[13] = system: wheat (Triticum aestivum); assay: Test A postemergence, wheat; details: 0 to 100 scale
Description: as §1

corn (Zea mays) = assay: Test A postemergence, corn; details: 0 to 100 scale
Description: as §1

[14] = system: blackgrass (Alopecurus myosuroides); assay: Test A postemergence, blackgrass; details: 0 to 100 scale
Description: as §1

[15] = system: galium (catchweed bedstraw, Galium aparine); assay: Test A postemergence, galium; details: 0 to 100 scale
Description: as §1

[16] = system: barnyardgrass (Echinochloa crus-galli); assay: Test B flooded paddy test, barnyardgrass; details: Flood, 250 g ai/ha applied to paddy water, 2-leaf stage, 13 to 15 d; scale of 0 to 100 where 0 is no effect and 100 is complete control
Description: (§2) Plant species in the flooded paddy test selected from rice (Oryza sativa), sedge, umbrella (small-flower umbrella sedge, Cyperus difformis), ducksalad (Heteranthera limosa), and barnyardgrass (Echinochloa crus-galli) were grown to the 2-leaf stage for testing. At the time of treatment, test pots were flooded to 3 cm above the soil surface, treated by application of test compounds directly to the paddy water, and then maintained at that water depth for the duration of the test. Treated plants and controls were maintained in a greenhouse for 13 to 15 d, after which time all species were compared to controls and visually evaluated. Plant response ratings, summarized in Table B, are based on a scale of 0 to 100 where 0 is no effect and 100 is complete control. A dash (-) response means no test result.

[17] = system: ducksalad (Heteranthera limosa); assay: Test B flooded paddy test, ducksalad; details: Flood, 250 g ai/ha applied to paddy water, 2-leaf stage, 13 to 15 d; scale of 0 to 100 where 0 is no effect and 100 is complete control
Description: as §2

rice (Oryza sativa) = assay: Test B flooded paddy test, rice; details: Flood, 250 g ai/ha applied to paddy water, 2-leaf stage, 13 to 15 d; scale of 0 to 100 where 0 is no effect and 100 is complete control
Description: as §2

[18] = system: sedge, umbrella (small-flower umbrella sedge, Cyperus difformis); assay: Test B flooded paddy test, umbrella sedge; details: Flood, 250 g ai/ha applied to paddy water, 2-leaf stage, 13 to 15 d; scale of 0 to 100 where 0 is no effect and 100 is complete control
Description: as §2

## COc1c(C)nn(C)c(=O)c1C1=C(C)CCc2ccccc21 [Compound 1, 4-(3,4-dihydro-2-methyl-1-naphthalenyl)-5-methoxy-2,6-dimethyl-3(2H)-pyridazinone]
[1]; 1000 g ai/ha
  Plant response rating, Barnyardgrass: 80
Kochia (Kochia scoparia) [2]; 1000 g ai/ha
  Plant response rating, Kochia: 70
[3]; 1000 g ai/ha
  Plant response rating, Ragweed: 100
[4]; 1000 g ai/ha
  Plant response rating, Ryegrass, It.: 100
[5]; 1000 g ai/ha
  Plant response rating, Foxtail, Green: 70
[6]; 1000 g ai/ha
  Plant response rating, Pigweed: 60
[7]; 1000 g ai/ha, 0 no effect, 100 complete control
  Plant response rating, Barnyardgrass: 60
Kochia (Kochia scoparia) [8]; 1000 g ai/ha
  Plant response rating, Kochia: 20
[9]; 1000 g ai/ha
  Plant response rating, Ragweed: 90
[10]; 1000 g ai/ha
  Plant response rating, Ryegrass, Italian: 90
[11]; 1000 g ai/ha
  Plant response rating, Foxtail, Green: 60
[12]; 1000 g ai/ha
  Plant response rating, Pigweed: 80
[13]; 1000 g ai/ha
  Plant response rating, Wheat: 0
Corn (Zea mays); 1000 g ai/ha
  Plant response rating, Corn: 10
[14]; 1000 g ai/ha
  Plant response rating, Blackgrass: 70
[15]; 1000 g ai/ha
  Plant response rating, Galium: 100

## CC1=C(c2c(O)c(C)nn(C)c2=O)c2ccccc2CC1 [Compound 2, 4-(3,4-dihydro-2-methyl-1-naphthalenyl)-5-hydroxy-2,6-dimethyl-3(2H)-pyridazinone]
[1]; 125 g ai/ha
  Plant response rating, Barnyardgrass: 0
[1]; 500 g ai/ha
  Plant response rating, Barnyardgrass: 0
Kochia (Kochia scoparia) [2]; 125 g ai/ha
  Plant response rating, Kochia: 0
Kochia (Kochia scoparia) [2]; 500 g ai/ha
  Plant response rating, Kochia: 80
[3]; 125 g ai/ha
  Plant response rating, Ragweed: 40
[3]; 500 g ai/ha
  Plant response rating, Ragweed: 90
[4]; 125 g ai/ha
  Plant response rating, Ryegrass, It.: 40
[4]; 500 g ai/ha
  Plant response rating, Ryegrass, It.: 50
[5]; 125 g ai/ha
  Plant response rating, Foxtail, Green: 0
[5]; 500 g ai/ha
  Plant response rating, Foxtail, Green: 0
[6]; 125 g ai/ha
  Plant response rating, Pigweed: 0
[6]; 500 g ai/ha
  Plant response rating, Pigweed: 80
[7]; 125 g ai/ha
  Plant response rating, Barnyardgrass: 0
[7]; 500 g ai/ha
  Plant response rating, Barnyardgrass: 20
Kochia (Kochia scoparia) [8]; 125 g ai/ha
  Plant response rating, Kochia: 80
Kochia (Kochia scoparia) [8]; 500 g ai/ha
  Plant response rating, Kochia: 90
[9]; 125 g ai/ha
  Plant response rating, Ragweed: 80
[9]; 500 g ai/ha
  Plant response rating, Ragweed: 90
[10]; 125 g ai/ha
  Plant response rating, Ryegrass, It.: 60
[10]; 500 g ai/ha
  Plant response rating, Ryegrass, Italian: 100
[11]; 125 g ai/ha
  Plant response rating, Foxtail, Green: 10
[11]; 500 g ai/ha
  Plant response rating, Foxtail, Green: 70
[12]; 125 g ai/ha
  Plant response rating, Pigweed: 80
[12]; 500 g ai/ha
  Plant response rating, Pigweed: 90
[13]; 125 g ai/ha
  Plant response rating, Wheat: 0
[13]; 500 g ai/ha
  Plant response rating, Wheat: 0
Corn (Zea mays); 125 g ai/ha
  Plant response rating, Corn: 10
Corn (Zea mays); 500 g ai/ha
  Plant response rating, Corn: 10
[14]; 125 g ai/ha
  Plant response rating, Blackgrass: 0
[14]; 500 g ai/ha
  Plant response rating, Blackgrass: 20
[15]; 125 g ai/ha
  Plant response rating, Galium: 90
[15]; 500 g ai/ha
  Plant response rating, Galium: 100
[16]
  Plant response rating, Barnyardgrass: 0
[17]
  Plant response rating, Ducksalad: 0
Rice (Oryza sativa)
  Plant response rating, Rice: 0
[18]
  Plant response rating, Sedge, Umbrella: 0

## CC1=C(c2c(O)c(C)nn(C)c2=O)c2ccccc2OC1 [Compound 3, 5-hydroxy-2,6-dimethyl-4-(3-methyl-2H-1-benzopyran-4-yl)-3(2H)-pyridazinone]
[1]; 125 g ai/ha
  Plant response rating, Barnyardgrass: 0
[1]; 500 g ai/ha
  Plant response rating, Barnyardgrass: 0
Kochia (Kochia scoparia) [2]; 125 g ai/ha
  Plant response rating, Kochia: 10
Kochia (Kochia scoparia) [2]; 500 g ai/ha
  Plant response rating, Kochia: 30
[3]; 125 g ai/ha
  Plant response rating, Ragweed: 0
[3]; 500 g ai/ha
  Plant response rating, Ragweed: 50
[4]; 125 g ai/ha
  Plant response rating, Ryegrass, It.: 0
[4]; 500 g ai/ha
  Plant response rating, Ryegrass, It.: 10
[5]; 125 g ai/ha
  Plant response rating, Foxtail, Green: 0
[5]; 500 g ai/ha
  Plant response rating, Foxtail, Green: 0
[6]; 125 g ai/ha
  Plant response rating, Pigweed: 10
[6]; 500 g ai/ha
  Plant response rating, Pigweed: 60
[7]; 125 g ai/ha
  Plant response rating, Barnyardgrass: 0
[7]; 500 g ai/ha
  Plant response rating, Barnyardgrass: 10
Kochia (Kochia scoparia) [8]; 125 g ai/ha
  Plant response rating, Kochia: 70
Kochia (Kochia scoparia) [8]; 500 g ai/ha
  Plant response rating, Kochia: 90
[9]; 125 g ai/ha
  Plant response rating, Ragweed: 60
[9]; 500 g ai/ha
  Plant response rating, Ragweed: 90
[10]; 125 g ai/ha
  Plant response rating, Ryegrass, It.: 10
[10]; 500 g ai/ha
  Plant response rating, Ryegrass, Italian: 60
[11]; 125 g ai/ha
  Plant response rating, Foxtail, Green: 0
[11]; 500 g ai/ha
  Plant response rating, Foxtail, Green: 20
[12]; 125 g ai/ha
  Plant response rating, Pigweed: 80
[12]; 500 g ai/ha
  Plant response rating, Pigweed: 100
[13]; 125 g ai/ha
  Plant response rating, Wheat: 0
[13]; 500 g ai/ha
  Plant response rating, Wheat: 0
Corn (Zea mays); 125 g ai/ha
  Plant response rating, Corn: 0
Corn (Zea mays); 500 g ai/ha
  Plant response rating, Corn: 10
[14]; 125 g ai/ha
  Plant response rating, Blackgrass: 0
[14]; 500 g ai/ha
  Plant response rating, Blackgrass: 10
[16]
  Plant response rating, Barnyardgrass: 0
[17]
  Plant response rating, Ducksalad: 0
Rice (Oryza sativa)
  Plant response rating, Rice: 0
[18]
  Plant response rating, Sedge, Umbrella: 50

## CC1=C(c2c(O)c(C)nn(C)c2=O)c2cc(C)ccc2CC1 [Compound 4]
[1]; 31 g ai/ha
  Plant response rating, Barnyardgrass: 0
[1]; 125 g ai/ha
  Plant response rating, Barnyardgrass: 0
Kochia (Kochia scoparia) [2]; 31 g ai/ha
  Plant response rating, Kochia: 0
Kochia (Kochia scoparia) [2]; 125 g ai/ha
  Plant response rating, Kochia: 0
[3]; 31 g ai/ha
  Plant response rating, Ragweed: 0
[3]; 125 g ai/ha
  Plant response rating, Ragweed: 0
[4]; 31 g ai/ha
  Plant response rating, Ryegrass, It.: 0
[4]; 125 g ai/ha
  Plant response rating, Ryegrass, It.: 0
[5]; 31 g ai/ha
  Plant response rating, Foxtail, Green: 0
[5]; 125 g ai/ha
  Plant response rating, Foxtail, Green: 0
[6]; 31 g ai/ha
  Plant response rating, Pigweed: 0
[6]; 125 g ai/ha
  Plant response rating, Pigweed: 0
[7]; 31 g ai/ha
  Plant response rating, Barnyardgrass: 10
[7]; 125 g ai/ha
  Plant response rating, Barnyardgrass: 10
Kochia (Kochia scoparia) [8]; 31 g ai/ha
  Plant response rating, Kochia: 0
Kochia (Kochia scoparia) [8]; 125 g ai/ha
  Plant response rating, Kochia: 20
[9]; 31 g ai/ha
  Plant response rating, Ragweed: 0
[9]; 125 g ai/ha
  Plant response rating, Ragweed: 20
[10]; 31 g ai/ha
  Plant response rating, Ryegrass, It.: 0
[10]; 125 g ai/ha
  Plant response rating, Ryegrass, It.: 20
[11]; 31 g ai/ha
  Plant response rating, Foxtail, Green: 10
[11]; 125 g ai/ha
  Plant response rating, Foxtail, Green: 20
[12]; 31 g ai/ha
  Plant response rating, Pigweed: 50
[12]; 125 g ai/ha
  Plant response rating, Pigweed: 70
[13]; 31 g ai/ha
  Plant response rating, Wheat: 0
[13]; 125 g ai/ha
  Plant response rating, Wheat: 0
Corn (Zea mays); 31 g ai/ha
  Plant response rating, Corn: 0
Corn (Zea mays); 125 g ai/ha
  Plant response rating, Corn: 0
[14]; 31 g ai/ha
  Plant response rating, Blackgrass: 0
[14]; 125 g ai/ha
  Plant response rating, Blackgrass: 0
[15]; 31 g ai/ha
  Plant response rating, Galium: 40
[15]; 125 g ai/ha
  Plant response rating, Galium: 70
[16]
  Plant response rating, Barnyardgrass: 0
[17]
  Plant response rating, Ducksalad: 0
Rice (Oryza sativa)
  Plant response rating, Rice: 0
[18]
  Plant response rating, Sedge, Umbrella: 0
